{"source": "patent US9409908B2", "about": "(priority 2012, dated 2016)", "note": "Structures can show the parent of a compound that is named as a salt.", "data": [{"molecular_target": "purified human Factor XIa (Homo sapiens (Human), UniProt P03951)", "sequence (P03951 whole entry, looked up)": "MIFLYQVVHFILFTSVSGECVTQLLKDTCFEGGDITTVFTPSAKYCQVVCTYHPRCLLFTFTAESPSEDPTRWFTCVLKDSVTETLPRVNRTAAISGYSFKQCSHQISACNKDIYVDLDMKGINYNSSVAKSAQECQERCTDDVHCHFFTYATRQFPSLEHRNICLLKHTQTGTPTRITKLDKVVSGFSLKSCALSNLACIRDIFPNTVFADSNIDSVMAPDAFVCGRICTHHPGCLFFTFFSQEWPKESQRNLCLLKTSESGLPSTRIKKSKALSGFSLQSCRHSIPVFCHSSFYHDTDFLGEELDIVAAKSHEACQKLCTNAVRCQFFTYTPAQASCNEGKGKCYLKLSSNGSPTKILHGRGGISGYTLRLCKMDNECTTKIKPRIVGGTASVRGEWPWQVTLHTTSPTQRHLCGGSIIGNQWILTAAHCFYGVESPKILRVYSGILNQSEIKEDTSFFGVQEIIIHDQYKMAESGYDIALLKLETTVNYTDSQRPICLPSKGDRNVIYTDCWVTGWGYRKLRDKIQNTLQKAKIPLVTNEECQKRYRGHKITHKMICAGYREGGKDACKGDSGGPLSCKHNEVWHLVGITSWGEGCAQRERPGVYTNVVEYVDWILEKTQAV", "sequence (P03951 whole entry partner, looked up)": "as the sequence (P03951 whole entry, looked up) above", "experiment": "biochemical", "assay_type": "biochemical", "details": "TFA salt; read-out: Factor XIa Ki", "units": {"Ki": "nM"}, "values": [{"smiles": "CC1CCCC(N2CCC(c3c(F)ccc(Cl)c3F)=CC2=O)c2cc(ccn2)-c2ccc(C#N)cc2NC1=O", "note": "(stereo in doubt) [Example 23, (14R)-14-[4-(3-Chloro-2,6-difluorophenyl)-6-oxo-1,2,3,6-tetrahydropyridin-1-yl]-10-methyl-9-oxo-8,16-diazatricyclo[13.3.1.0^2,7]nonadeca-1(18),2,4,6,15(19),16-hexaene-5-carbonitrile, TFA salt]", "Ki": 93.2}]}, {"molecular_target": "purified human Factor XIa (Homo sapiens (Human), UniProt P03951)", "experiment": "biochemical", "assay_type": "biochemical", "details": "read-out: Factor XIa Ki", "units": {"Ki": "nM"}, "values": [{"smiles": "Cc1[nH]c2nc1-c1ccccc1NC(=O)[C@H](C)CCC[C@@H]2N1CCC(c2c(F)ccc(Cl)c2F)=CC1=O", "note": "[Example 220, (10R,14S)-14-[4-(3-chloro-2,6-difluorophenyl)-6-oxo-1,2,3,6-tetrahydropyridin-1-yl]-10,17-dimethyl-8,16,18-triazatricyclo[13.2.1.0^2,7]octadeca-1(17),2,4,6,15(18)-pentaen-9-one, TFA salt]", "Ki": 21.7}, {"smiles": "C[C@@H]1CCC[C@H](N2CCC(c3c(F)ccc(Cl)c3F)=CC2=O)c2cc(ccn2)-c2ccc(Nc3nnc(-c4ccco4)o3)cc2NC1=O", "note": "[Example 103, (10R,14S)-14-[4-(3-Chloro-2,6-difluorophenyl)-6-oxo-1,2,3,6-tetrahydropyridin-1-yl]-5-{[5-(furan-2-yl)-1,3,4-oxadiazol-2-yl]amino}-10-methyl-8,16-diazatricyclo[13.3.1.0^2,7]nonadeca-1(19),2(7),3,5,15,17-hexaen-9-one, TFA salt]", "Ki": 6.13}, {"smiles": "C[C@@H]1CCC[C@H](N2CCC(c3cc(Cl)ccc3-n3ccnn3)=CC2=O)c2cc(ccn2)-c2ccccc2NC1=O", "note": "[Example 189, (10R,14S)-14-{4-[5-chloro-2-(1H-1,2,3-triazol-1-yl)phenyl]-6-oxo-1,2,3,6-tetrahydropyridin-1-yl}-10-methyl-8,16-diazatricyclo[13.3.1.0^2,7]nonadeca-1(19),2(7),3,5,15,17-hexaen-9-one]", "Ki": 2.28}, {"smiles": "COC(=O)c1ccc2c(c1)-c1cccc(c1)[C@@H](N1CCC(c3c(C(C)=O)ccc(Cl)c3F)=CC1=O)CCC[C@@H](C)C(=O)N2", "note": "[Example 172, Methyl (10R,14S)-14-[4-(6-acetyl-3-chloro-2-fluorophenyl)-6-oxo-1,2,3,6-tetrahydropyridin-1-yl]-10-methyl-9-oxo-8-azatricyclo[13.3.1.0^2,7]nonadeca-1(18),2,4,6,15(19),16-hexaene-4-carboxylate]", "Ki": 140}, {"smiles": "CCOC(=O)Cc1nnc(Nc2ccc3c(c2)NC(=O)[C@H](C)CCC[C@H](N2CCC(c4c(F)ccc(Cl)c4F)=CC2=O)c2cc-3ccn2)o1", "note": "[Example 42, Ethyl 2-(5-{[(10R,14S)-14-[4-(3-chloro-2,6-difluorophenyl)-6-oxo-1,2,3,6-tetrahydropyridin-1-yl]-10-methyl-9-oxo-8,16-diazatricyclo[13.3.1.0^2,7]nonadeca-1(19),2,4,6,15,17-hexaen-5-yl]amino}-1,3,4-oxadiazol-2-yl)acetate, TFA salt]", "Ki": 0.45}, {"smiles": "C[C@@H]1CCC[C@H](N2CCC(c3c(F)ccc(Cl)c3F)=CC2=O)c2cc(ccn2)-c2cc(-c3nn[nH]n3)ccc2NC1=O", "note": "[Example 140, (10R,14S)-14-[4-(3-chloro-2,6-difluorophenyl)-6-oxo-1,2,3,6-tetrahydropyridin-1-yl]-10-methyl-4-(2H-1,2,3,4-tetrazol-5-yl)-8,16-diazatricyclo[13.3.1.0^2,7]nonadeca-1(19),2(7),3,5,15,17-hexaen-9-one]", "Ki": 1.34}, {"smiles": "C[C@@H]1CCC[C@H](N2CCC(c3c(F)ccc(Cl)c3F)=CC2=O)c2cc(ccn2)-c2ccc(F)cc2NC1=O", "note": "[Example 14, (10R,14S)-14-[4-(3-Chloro-2,6-difluorophenyl)-6-oxo-1,2,3,6-tetrahydropyridin-1-yl]-5-fluoro-10-methyl-8,16-diazatricyclo[13.3.1.0^2,7]nonadeca-1(19),2,4,6,15,17-hexaen-9-one, TFA salt]", "Ki": 34.8}, {"smiles": "C[C@@H]1CCC[C@H](N2CCC(c3c(F)ccc(Cl)c3F)=CC2=O)c2cc(ccn2)-c2ccc(NS(C)(=O)=O)cc2NC1=O", "note": "[Example 76, N-[(10R,14S)-14-[4-(3-Chloro-2,6-difluorophenyl)-6-oxo-1,2,3,6-tetrahydropyridin-1-yl]-10-methyl-9-oxo-8,16-diazatricyclo[13.3.1.0^2,7]nonadeca-1(19),2(7),3,5,15,17-hexaen-5-yl]methanesulfonamide, TFA salt]", "Ki": 7.89}, {"smiles": "COC(=O)Nc1ccc2c(c1)NC(=O)[C@H](C)CCC[C@H](N1CCC(c3cncn3C)=CC1=O)c1cc-2ccn1", "note": "[Example 97, Methyl N-[(10R,14S)-10-methyl-14-[4-(1-methyl-1H-imidazol-5-yl)-6-oxo-1,2,3,6-tetrahydropyridin-1-yl]-9-oxo-8,16-diazatricyclo[13.3.1.0^2,7]nonadeca-1(19),2,4,6,15,17-hexaen-5-yl]carbamate, 2 TFA salt]", "Ki": "> 408"}, {"smiles": "CC(=O)c1ccc(Cl)c(F)c1C1=CC(=O)N([C@H]2CCCC(C)C(=O)Nc3cc(C(N)=O)ccc3-c3ccnc2c3)CC1", "note": "(stereo partly drawn) [Example 34, (14S)-14-[4-(6-Acetyl-3-chloro-2-fluorophenyl)-6-oxo-1,2,3,6-tetrahydropyridin-1-yl]-10-methyl-9-oxo-8,16-diazatricyclo[13.3.1.0^2,7]nonadeca-1(19),2,4,6,15,17-hexaene-5-carboxamide, TFA salt]", "Ki": 4.17}, {"smiles": "CC(=O)c1ccc(Cl)c(F)c1C1=CC(=O)N([C@H]2CCC[C@@H](C)C(=O)Nc3ccccc3-c3ccnc2c3)CC1", "note": "[Example 48, (10R,14S)-14-[4-(6-Acetyl-3-chloro-2-fluorophenyl)-6-oxo-1,2,3,6-tetrahydropyridin-1-yl]-10-methyl-8,16-diazatricyclo[13.3.1.0^2,7]nonadeca-1(19),2,4,6,15,17-hexaen-9-one, TFA salt]", "Ki": 4.77}, {"smiles": "C[C@@H]1CCC[C@H](N2CCC(c3c(F)ccc(Cl)c3F)=CC2=O)c2cc(ccn2)-n2nc(C(=O)O)cc2NC1=O", "note": "[Example 222, (9R,13S)-13-[4-(3-chloro-2,6-difluorophenyl)-6-oxo-1,2,3,6-tetrahydropyridin-1-yl]-9-methyl-8-oxo-2,3,7,15-tetraazatricyclo[12.3.1.0^2,6]octadeca-1(18),3,5,14,16-pentaene-4-carboxylic acid]", "Ki": 88.4}, {"smiles": "COC(=O)Nc1cc2n(n1)-c1ccnc(c1)[C@@H](N1CCC(c3c(F)ccc(Cl)c3F)=CC1=O)CCC[C@@H](C)C(=O)N2", "note": "[Example 224, Methyl N-[(9R,13S)-13-[4-(3-chloro-2,6-difluorophenyl)-6-oxo-1,2,3,6-tetrahydropyridin-1-yl]-9-methyl-8-oxo-2,3,7,15-tetraazatricyclo[12.3.1.0^2,6]octadeca-1(18),3,5,14,16-pentaen-4-yl]carbamate]", "Ki": 298}, {"smiles": "CC(C)[C@@H]1CCC[C@H](N2CCC(c3c(-n4cnnn4)ccc(Cl)c3F)=CC2=O)c2cc(ccn2)-c2ccccc2NC1=O", "note": "[Example 100, (10S,14S)-14-{4-[3-chloro-2-fluoro-6-(1H-1,2,3,4-tetrazol-1-yl)phenyl]-6-oxo-1,2,3,6-tetrahydropyridin-1-yl}-10-(propan-2-yl)-8,16-diazatricyclo[13.3.1.0^2,7]nonadeca-1(18),2,4,6,15(19),16-hexaen-9-one, TFA salt]", "Ki": 0.09}, {"smiles": "C[C@@H]1CCC[C@H](n2ccc(-c3c(F)ccc(Cl)c3F)cc2=O)c2cc(ccn2)-c2ccc(N)cc2NC1=O", "note": "[Example 91, (10R,14S)-5-Amino-14-[4-(3-chloro-2,6-difluorophenyl)-2-oxo-1,2-dihydropyridin-1-yl]-10-methyl-8,16-diazatricyclo[13.3.1.0^2,7]nonadeca-1(19),2,4,6,15,17-hexaen-9-one, 2 TFA salt]", "Ki": 0.56}]}, {"molecular_target": "purified human plasma kallikrein (Homo sapiens (Human), UniProt P03952)", "sequence (P03952 whole entry, looked up)": "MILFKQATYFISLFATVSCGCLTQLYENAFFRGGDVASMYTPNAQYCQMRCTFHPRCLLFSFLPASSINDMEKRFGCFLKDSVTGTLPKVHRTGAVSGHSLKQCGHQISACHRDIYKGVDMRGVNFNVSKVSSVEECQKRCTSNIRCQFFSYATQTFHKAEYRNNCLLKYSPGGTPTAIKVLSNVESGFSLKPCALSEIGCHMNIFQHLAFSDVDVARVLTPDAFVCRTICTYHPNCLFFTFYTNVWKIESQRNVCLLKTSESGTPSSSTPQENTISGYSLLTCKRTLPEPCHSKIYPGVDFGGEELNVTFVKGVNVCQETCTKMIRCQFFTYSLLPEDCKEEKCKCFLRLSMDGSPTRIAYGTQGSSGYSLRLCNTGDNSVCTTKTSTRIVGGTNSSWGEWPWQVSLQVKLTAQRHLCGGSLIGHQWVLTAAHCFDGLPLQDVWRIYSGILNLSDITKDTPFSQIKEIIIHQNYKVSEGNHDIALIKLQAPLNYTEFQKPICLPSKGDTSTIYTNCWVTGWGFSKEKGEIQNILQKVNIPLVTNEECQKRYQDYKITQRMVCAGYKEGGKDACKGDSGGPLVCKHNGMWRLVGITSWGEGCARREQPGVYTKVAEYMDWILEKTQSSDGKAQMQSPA", "sequence (P03952 whole entry partner, looked up)": "as the sequence (P03952 whole entry, looked up) above", "experiment": "biochemical", "assay_type": "biochemical", "details": "Plasma Kallikrein Ki", "units": {"Ki": "nM"}, "values": [{"smiles": "COC(=O)Nc1ccc2c(c1)NC(=O)[C@H](C)CCC[C@H](N1CC(C)C(c3c(F)ccc(Cl)c3F)=CC1=O)c1cc-2ccn1", "note": "(single isomer, unassigned; isomer 2) [Example 178]", "Ki": 5.68}]}, {"molecular_target": "purified human plasma kallikrein (Homo sapiens (Human), UniProt P03952)", "experiment": "biochemical", "assay_type": "biochemical", "details": "read-out: Plasma Kallikrein Ki", "units": {"Ki": "nM"}, "values": [{"smiles": "Cc1[nH]c2nc1-c1ccccc1NC(=O)[C@H](C)CCC[C@@H]2N1CCC(c2c(F)ccc(Cl)c2F)=CC1=O", "note": "[Example 220, (10R,14S)-14-[4-(3-chloro-2,6-difluorophenyl)-6-oxo-1,2,3,6-tetrahydropyridin-1-yl]-10,17-dimethyl-8,16,18-triazatricyclo[13.2.1.0^2,7]octadeca-1(17),2,4,6,15(18)-pentaen-9-one, TFA salt]", "Ki": 50.2}, {"smiles": "CC1CCC[C@H](N2CCC(c3c(F)ccc(Cl)c3F)=CC2=O)c2cc(ccn2)-c2ccc(C#N)cc2NC1=O", "note": "(stereo partly drawn) [Example 109, (14S)-14-[4-(3-Chloro-2,6-difluorophenyl)-6-oxo-1,2,3,6-tetrahydropyridin-1-yl]-10-methyl-9-oxo-8,16-diazatricyclo[13.3.1.0^2,7]nonadeca-1(18),2,4,6,15(19),16-hexaene-5-carbonitrile, TFA salt]", "Ki": 40}, {"smiles": "COC(=O)Nc1ccc2c(c1)NC(=O)[C@H](C)CCC[C@H](N1CCC(c3cccc(Cl)c3F)=CC1=O)c1nc-2c(C)[nH]1", "note": "[Example 151, Methyl N-[(10R,14S)-14-[4-(3-chloro-2-fluorophenyl)-6-oxo-1,2,3,6-tetrahydropyridin-1-yl]-10,17-dimethyl-9-oxo-8,16,18-triazatricyclo[13.2.1.0^2,7]octadeca-1(17),2,4,6,15(18)-pentaen-5-yl]carbamate]", "Ki": 23.8}, {"smiles": "C[C@@H]1CCC[C@H](N2CCC(c3c(F)ccc(Cl)c3F)=CC2=O)c2cc(ccn2)-c2cc(Cl)c(O)c(Cl)c2NC1=O", "note": "[Example 20, (10R,14S)-4,6-Dichloro-14-[4-(3-chloro-2,6-difluorophenyl)-6-oxo-1,2,3,6-tetrahydropyridin-1-yl]-5-hydroxy-10-methyl-8,16-diazatricyclo[13.3.1.0^2,7]nonadeca-1(19),2,4,6,15,17-hexaen-9-one, TFA salt]", "Ki": 973}, {"smiles": "C[C@@H]1CCC[C@H](N2CCC(c3c(F)ccc(Cl)c3F)=CC2=O)c2cc(ccn2)-c2ccc(NC3O[C@H](CO)[C@@H](O)[C@@H](O)[C@H]3NC(=O)OC(C)(C)C)cc2NC1=O", "note": "(stereo partly drawn) [Example 132, tert-butyl N-[(3R,4S,5S,6R)-2-{[(10R,14S)-14-[4-(3-chloro-2,6-difluorophenyl)-6-oxo-1,2,3,6-tetrahydropyridin-1-yl]-10-methyl-9-oxo-8,16-diazatricyclo[13.3.1.0^2,7]nonadeca-1(19),2,4,6,15,17-hexaen-5-yl]amino}-4,5-dihydroxy-6-(hydroxymethyl)oxan-3-yl]carbamate]", "Ki": 17.3}]}]}
